Results from US9688681B2, “Heterocyclic compounds as pest control agents” (BAYER CROPSCIENCE AKTIENGESELLSCHAFT, priority 2013, dated 2017).

Key:
[1] = log P by HPLC on reversed-phase C18 columns (OECD Guideline 117); assay type: physicochemical; settings: HPLC RP C18, acidic range pH 2.7, 0.1% aqueous formic acid/acetonitrile
[2] = system: green peach aphid (Myzus persicae); experiment: Myzus persicae spray test on Chinese cabbage leaf discs; assay type: in vivo; settings: application rate 500 g/ha, after 6 days
Source text: Discs of Chinese cabbage leaves (Brassica pekinensis) infested by all stages of the green peach aphid (Myzus persicae) are sprayed with an active ingredient formulation of the desired concentration.

[3] = system: southern root-knot nematode (Meloidogyne incognita); settings: application rate 20 ppm, after 14 days, lettuce in sand
Method: Meloidogvne incognita Test (MELGIN)
Solvent: 125.0 parts by weight of acetone
To produce an appropriate active ingredient formulation, 1 part by weight of active ingredient is mixed with the specified amounts of solvent and the concentrate is diluted to the desired concentration with water.
Vessels are filled with sand, active ingredient solution, an egg/larvae suspension of the southern root-knot nematode (Meloidogyne incognita) and lettuce seeds. The lettuce seeds germinate and the plants develop.
After 14 days, the nematicidal efficacy in % is determined by the formation of galls.

O=c1c2cn(-c3cccnc3)nc2ncn1-c1ccc(Cl)cc1 [compound 14]
logP[a] [1]: 1.74
efficacy (aphids killed) [2]: 90%
nematicidal efficacy (formation of galls) [3]: 100%
